Results: the supplement of paper PMC10307832

Columns and labels:
Test in all cases: relative viability (nuclei count vs DMSO), 5 days (fraction); higher = more cells survive
LCLC-103H = tested on: LCLC-103H
Summary of the method: (§1)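 Relative viability divides the nuclei count in treated wells by that in vehicle wells. Lung cancer cell lines were seeded in 1536-well plates, dosed by pin tool the next day, and fixed and stained after 5 days in one step with final 0.05% Triton X-100, 1% formaldehyde and 1 ug/ml Hoechst. Dosing was a single drug or a fixed anchor-drug dose plus five library-drug doses (not always all listed) in √10 steps, and values are medians of duplicate plates imaged at 4×.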

HCC-15 = tested on: HCC-15
Summary of the method: as §1

PC-14 = tested on: PC-14
Summary of the method: as §1

NCI-H1437 = tested on: NCI-H1437
Summary of the method: as §1

H3255 = tested on: H3255
Summary of the method: as §1

LXF-289 = tested on: LXF-289
Summary of the method: as §1

HCC-366 = tested on: HCC-366
Summary of the method: as §1

NCI-H2085 = tested on: NCI-H2085
Summary of the method: as §1

NCI-H1666 = tested on: NCI-H1666
Summary of the method: as §1

ABC-1 = tested on: ABC-1
Summary of the method: as §1

HCC-827 = tested on: HCC-827
Summary of the method: as §1

NCI-H1975 = tested on: NCI-H1975
Summary of the method: as §1

PC-3 [JPC-3] = tested on: PC-3 [JPC-3]
Summary of the method: as §1

NCI-H23 = tested on: NCI-H23
Summary of the method: as §1

LC-2-ad = tested on: LC-2-ad
Summary of the method: as §1

NCI-H2087 = tested on: NCI-H2087
Summary of the method: as §1

NCI-H2342 = tested on: NCI-H2342
Summary of the method: as §1

`CN1CCN(CCOc2cc(OC3CCOCC3)c3c(Nc4c(Cl)ccc5c4OCO5)ncnc3c2)CC1` [Saracatinib] + NC(=O)Nc1cc(-c2cccc(F)c2)sc1C(=O)N[C@H]1CCCNC1 [AZD7762] (partner 0.2 µM) was tested, and the relative viability (LCLC-103H; first compound 0.02 µM) was 0.855, the relative viability (LCLC-103H; first compound 0.2 µM) was 0.711 and the relative viability (LCLC-103H; first compound 0.6325 µM) was 0.821. It also gave a relative viability (LCLC-103H; first compound 2 µM) of 0.772, a relative viability (HCC-15; first compound 0.02 µM) of 1.29 and a relative viability (HCC-15; first compound 0.2 µM) of 0.874. For the same molecule, the relative viability (HCC-15; first compound 0.6325 µM) was 1.14, the relative viability (HCC-15; first compound 2 µM) was 1.21 and the relative viability (PC-14; first compound 0.02 µM) was 0.381. For the same molecule, the relative viability (PC-14; first compound 0.2 µM) was 0.286, the relative viability (PC-14; first compound 0.6325 µM) was 0.246 and the relative viability (PC-14; first compound 2 µM) was 0.203. It also gave a relative viability (NCI-H1437; first compound 0.02 µM) of 1.12, a relative viability (NCI-H1437; first compound 0.2 µM) of 1.17 and a relative viability (NCI-H1437; first compound 0.6325 µM) of 1.17. For the same molecule, the relative viability (NCI-H1437; first compound 2 µM) was 1.07, the relative viability (H3255; first compound 0.02 µM) was 0.959 and the relative viability (H3255; first compound 0.2 µM) was 0.917. It also gave a relative viability (H3255; first compound 0.6325 µM) of 0.966, a relative viability (H3255; first compound 2 µM) of 0.346 and a relative viability (LXF-289; first compound 0.02 µM) of 1.12. The relative viability (LXF-289; first compound 0.2 µM) was 1.09, the relative viability (LXF-289; first compound 0.6325 µM) was 1.12 and the relative viability (LXF-289; first compound 2 µM) was 1.1. The relative viability (HCC-366; first compound 0.02 µM) was 0.215, the relative viability (HCC-366; first compound 0.2 µM) was 0.0547 and the relative viability (HCC-366; first compound 0.6325 µM) was 0.216. For the same molecule, the relative viability (HCC-366; first compound 2 µM) was 0.139, the relative viability (NCI-H2085; first compound 0.02 µM) was 1.06 and the relative viability (NCI-H2085; first compound 0.2 µM) was 0.864. The relative viability (NCI-H2085; first compound 0.6325 µM) was 0.903, the relative viability (NCI-H2085; first compound 2 µM) was 0.871 and the relative viability (NCI-H1666; first compound 0.02 µM) was 0.956. It also gave a relative viability (NCI-H1666; first compound 0.2 µM) of 0.821, a relative viability (NCI-H1666; first compound 0.6325 µM) of 1.07 and a relative viability (NCI-H1666; first compound 2 µM) of 0.847. The relative viability (ABC-1; first compound 0.02 µM) was 0.934, the relative viability (ABC-1; first compound 0.2 µM) was 0.825 and the relative viability (ABC-1; first compound 0.6325 µM) was 0.908. The relative viability (ABC-1; first compound 2 µM) was 0.695, the relative viability (HCC-827; first compound 0.02 µM) was 0.223 and the relative viability (HCC-827; first compound 0.2 µM) was 0.119. For the same molecule, the relative viability (HCC-827; first compound 0.6325 µM) was 0.145, the relative viability (HCC-827; first compound 2 µM) was 0.11 and the relative viability (NCI-H1975; first compound 0.02 µM) was 0.812. It also gave a relative viability (NCI-H1975; first compound 0.2 µM) of 0.789, a relative viability (NCI-H1975; first compound 0.6325 µM) of 0.659 and a relative viability (NCI-H1975; first compound 2 µM) of 0.468. It also gave a relative viability (PC-3 [JPC-3]; first compound 0.02 µM) of 0.859, a relative viability (PC-3 [JPC-3]; first compound 0.2 µM) of 0.638 and a relative viability (PC-3 [JPC-3]; first compound 0.6325 µM) of 0.573. The relative viability (PC-3 [JPC-3]; first compound 2 µM) was 0.448, the relative viability (NCI-H23; first compound 0.02 µM) was 0.243 and the relative viability (NCI-H23; first compound 0.6325 µM) was 0.287. It also gave a relative viability (NCI-H23; first compound 2 µM) of 0.27, a relative viability (LC-2-ad; first compound 0.02 µM) of 0.841 and a relative viability (LC-2-ad; first compound 0.2 µM) of 0.778. For the same molecule, the relative viability (LC-2-ad; first compound 0.6325 µM) was 0.835, the relative viability (LC-2-ad; first compound 2 µM) was 0.726 and the relative viability (NCI-H2087; first compound 0.02 µM) was 1.33. The relative viability (NCI-H2087; first compound 0.2 µM) was 1.13, the relative viability (NCI-H2087; first compound 0.6325 µM) was 1.76 and the relative viability (NCI-H2087; first compound 2 µM) was 1.31. For the same molecule, the relative viability (NCI-H2342; first compound 0.02 µM) was 0.721, the relative viability (NCI-H2342; first compound 0.2 µM) was 0.471 and the relative viability (NCI-H2342; first compound 0.6325 µM) was 0.562. For the same molecule, the relative viability (NCI-H2342; first compound 2 µM) was 0.515.
